Assay results taken from ChEMBL document CHEMBL3885881, “DrugMatrix”.

Species: Rattus norvegicus
Test: DrugMatrix - Regimen: Daily Repeat
Assay type: toxicity, organism-based, Sprague-Dawley
Design: regimen Daily Repeat, gender Male, age 6-8 weeks
Details: in vivo, po, route oral GAVAGE, vehicle .5 % CMC; for BASOPHIL / EOSINOPHIL / ERYTHROCYTE COUNT / HEMATOCRIT / HEMOGLOBIN / LEUKOCYTE COUNT / LYMPHOCYTE / MEAN CORPUSCULAR HEMOGLOBIN / MEAN CORPUSCULAR HEMOGLOBIN CONCENTRATION / MEAN CORPUSCULAR VOLUME / MONOCYTE / NEUTROPHIL / PLATELET COUNT: tissue Blood; for ALANINE AMINOTRANSFERASE / ALBUMIN / ALKALINE PHOSPHATASE / ASPARTATE AMINOTRANSFERASE / BLOOD UREA NITROGEN / CHLORIDE / CHOLESTEROL / CREATINE PHOSPHOKINASE / CREATININE / GLUCOSE / PHOSPHORUS / POTASSIUM / SODIUM / TOTAL PROTEIN: tissue Plasma
[1] = 1 mg/kg, 120 h, dose level Low, time 5 day
[2] = 14 mg/kg, 72 h, dose level High, time 3 day
[3] = 14 mg/kg, 120 h, dose level High, time 5 day

SMILES: CN1C(C(=O)Nc2ccccn2)=C(O)c2ccccc2S1(=O)=O [PIROXICAM]
- BASOPHIL [1]: 0%
- EOSINOPHIL [1]: 0.33%
- ERYTHROCYTE COUNT [1]: 6.32 x10E6/uL
- HEMATOCRIT [1]: 40.2%
- HEMOGLOBIN [1]: 15.2 G/DL
- LEUKOCYTE COUNT [1]: 12.73 x10E3/uL
- LYMPHOCYTE [1]: 86.33%
- MEAN CORPUSCULAR HEMOGLOBIN [1]: 24.07 pg
- MEAN CORPUSCULAR HEMOGLOBIN CONCENTRATION [1]: 37.83 G/DL
- MEAN CORPUSCULAR VOLUME [1]: 63.7 fL
- MONOCYTE [1]: 2.33%
- NEUTROPHIL [1]: 11%
- PLATELET COUNT [1]: 1319.67 x10E3/uL
- ALANINE AMINOTRANSFERASE [1]: 36.67 u/L
- ALBUMIN [1]: 3.43 G/DL
- ALKALINE PHOSPHATASE [1]: 437.33 u/L
- ASPARTATE AMINOTRANSFERASE [1]: 64 u/L
- BLOOD UREA NITROGEN [1]: 13.67 mg/dL
- CHLORIDE [1]: 103 MEQ/L
- CHOLESTEROL [1]: 65 mg/dL
- CREATINE PHOSPHOKINASE [1]: 156.67 u/L
- CREATININE [1]: 0.53 mg/dL
- GLUCOSE [1]: 162.67 mg/dL
- PHOSPHORUS [1]: 11.97 mg/dL
- POTASSIUM [1]: 7.07 MEQ/L
- SODIUM [1]: 148.33 MEQ/L
- TOTAL PROTEIN [1]: 5.63 G/DL
- BASOPHIL [2]: 0%
- EOSINOPHIL [2]: 0.67%
- ERYTHROCYTE COUNT [2]: 6.72 x10E6/uL
- HEMATOCRIT [2]: 42.6%
- HEMOGLOBIN [2]: 15.63 G/DL
- LEUKOCYTE COUNT [2]: 11.5 x10E3/uL
- LYMPHOCYTE [2]: 77.67%
- MEAN CORPUSCULAR HEMOGLOBIN [2]: 23.3 pg
- MEAN CORPUSCULAR HEMOGLOBIN CONCENTRATION [2]: 36.73 G/DL
- MEAN CORPUSCULAR VOLUME [2]: 63.4 fL
- MONOCYTE [2]: 1.67%
- NEUTROPHIL [2]: 20%
- PLATELET COUNT [2]: 1318.33 x10E3/uL
- ALANINE AMINOTRANSFERASE [2]: 31.33 u/L
- ALBUMIN [2]: 3.67 G/DL
- ALKALINE PHOSPHATASE [2]: 301.33 u/L
- ASPARTATE AMINOTRANSFERASE [2]: 56.33 u/L
- BLOOD UREA NITROGEN [2]: 18.33 mg/dL
- CHLORIDE [2]: 104.67 MEQ/L
- CHOLESTEROL [2]: 84.67 mg/dL
- CREATINE PHOSPHOKINASE [2]: 181.33 u/L
- CREATININE [2]: 0.47 mg/dL
- GLUCOSE [2]: 193.67 mg/dL
- PHOSPHORUS [2]: 14.03 mg/dL
- POTASSIUM [2]: 6.9 MEQ/L
- SODIUM [2]: 150.67 MEQ/L
- TOTAL PROTEIN [2]: 6.03 G/DL
- BASOPHIL [3]: 0%
- EOSINOPHIL [3]: 0%
- ERYTHROCYTE COUNT [3]: 6.6 x10E6/uL
- HEMATOCRIT [3]: 41.4%
- HEMOGLOBIN [3]: 15.03 G/DL
- LEUKOCYTE COUNT [3]: 16.7 x10E3/uL
- LYMPHOCYTE [3]: 84.33%
- MEAN CORPUSCULAR HEMOGLOBIN [3]: 22.83 pg
- MEAN CORPUSCULAR HEMOGLOBIN CONCENTRATION [3]: 36.4 G/DL
- MEAN CORPUSCULAR VOLUME [3]: 62.8 fL
- MONOCYTE [3]: 0.67%
- NEUTROPHIL [3]: 15%
- PLATELET COUNT [3]: 1151 x10E3/uL
- ALANINE AMINOTRANSFERASE [3]: 37.33 u/L
- ALBUMIN [3]: 3.4 G/DL
- ALKALINE PHOSPHATASE [3]: 386 u/L
- ASPARTATE AMINOTRANSFERASE [3]: 55.33 u/L
- BLOOD UREA NITROGEN [3]: 15.33 mg/dL
- CHLORIDE [3]: 101.67 MEQ/L
- CHOLESTEROL [3]: 67 mg/dL
- CREATINE PHOSPHOKINASE [3]: 159.67 u/L
- CREATININE [3]: 0.5 mg/dL
- GLUCOSE [3]: 174.67 mg/dL
- PHOSPHORUS [3]: 14.17 mg/dL
- POTASSIUM [3]: 7.1 MEQ/L
- SODIUM [3]: 149 MEQ/L
- TOTAL PROTEIN [3]: 5.7 G/DL
